Results as given in ChEMBL document CHEMBL5244227, “Applications of fluorine-containing amino acids for drug design” (Eur J Med Chem, 2020).

Assays:
Plasmodium berghei = assay: Antimalarial activity against Plasmodium berghei infected in mouse model infected with assessed as reduction in parasitemia at 100 mg/kg; assay type: functional; set-up: scale not given: the % may be the effect or the level left
[1] = Binding affinity to CGRP (unknown origin); set-up: species or system Homo sapiens
[2] = Inhibition of HCV NS3/4A protease; set-up: species or system Hepacivirus hominis
[3] = In vivo inhibition of BACE-1 in wild type Hartley guinea pig assessed as reduction in amyloid beta level in cortex at 30 mg/kg, po administered twice daily for 2.5 days; assay type: functional; conditions: Cavia porcellus, 60 h, time 2.5 day
[4] = In vivo inhibition of BACE-1 in wild type Hartley guinea pig assessed as reduction in amyloid beta level in cerebrospinal fluid at 30 mg/kg, po administered twice daily for 2.5 days; assay type: functional; conditions: Cavia porcellus, 60 h, time 2.5 day
[5] = molecular target: ATP-dependent translocase ABCB1 (Homo sapiens, UniProt P08183); assay: Substrate activity at human P-gp assessed as transport ratio
ATP-dependent translocase ABCB1, sequence (P08183 whole entry): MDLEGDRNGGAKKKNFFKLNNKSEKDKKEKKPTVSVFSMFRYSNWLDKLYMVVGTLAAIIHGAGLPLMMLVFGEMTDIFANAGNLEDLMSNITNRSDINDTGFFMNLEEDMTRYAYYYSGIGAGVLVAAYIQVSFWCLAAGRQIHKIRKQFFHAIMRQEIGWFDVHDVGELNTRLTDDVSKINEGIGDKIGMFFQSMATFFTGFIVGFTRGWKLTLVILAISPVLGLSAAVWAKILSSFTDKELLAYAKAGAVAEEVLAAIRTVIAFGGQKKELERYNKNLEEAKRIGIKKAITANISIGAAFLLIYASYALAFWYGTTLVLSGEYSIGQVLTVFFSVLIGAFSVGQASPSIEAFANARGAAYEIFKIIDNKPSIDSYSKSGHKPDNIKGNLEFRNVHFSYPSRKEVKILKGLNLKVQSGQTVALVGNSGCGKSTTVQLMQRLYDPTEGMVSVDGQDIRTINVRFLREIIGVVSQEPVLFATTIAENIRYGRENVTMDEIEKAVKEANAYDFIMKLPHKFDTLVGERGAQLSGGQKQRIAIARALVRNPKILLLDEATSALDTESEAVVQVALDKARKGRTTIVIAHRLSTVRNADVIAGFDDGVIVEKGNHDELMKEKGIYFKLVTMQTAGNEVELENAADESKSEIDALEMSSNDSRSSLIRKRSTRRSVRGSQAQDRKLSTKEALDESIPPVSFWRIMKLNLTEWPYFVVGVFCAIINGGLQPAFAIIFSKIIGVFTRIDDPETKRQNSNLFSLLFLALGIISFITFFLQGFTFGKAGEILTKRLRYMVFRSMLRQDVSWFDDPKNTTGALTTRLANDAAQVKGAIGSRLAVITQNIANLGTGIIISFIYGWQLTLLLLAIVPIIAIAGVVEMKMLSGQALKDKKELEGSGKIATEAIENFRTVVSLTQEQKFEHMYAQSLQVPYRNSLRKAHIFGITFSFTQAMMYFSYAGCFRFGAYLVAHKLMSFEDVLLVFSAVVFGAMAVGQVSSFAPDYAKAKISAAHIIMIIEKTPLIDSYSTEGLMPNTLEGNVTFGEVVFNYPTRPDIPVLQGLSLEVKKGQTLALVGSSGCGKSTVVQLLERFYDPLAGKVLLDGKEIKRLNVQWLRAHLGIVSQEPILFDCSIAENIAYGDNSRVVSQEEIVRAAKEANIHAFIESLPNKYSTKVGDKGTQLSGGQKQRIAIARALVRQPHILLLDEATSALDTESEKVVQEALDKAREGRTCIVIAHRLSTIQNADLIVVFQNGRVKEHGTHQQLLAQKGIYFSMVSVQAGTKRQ

Hepatitis C virus = assay: Antiviral activity against HCV; assay type: functional, organism-based, Hepacivirus hominis
[6] = Oral bioavailability in rat; assay type: ADME, organism-based; conditions: in vivo

For `CC1CCc2c([nH]c3ccccc23)C2(N1)C(=O)Nc1ccc(Cl)cc12` (stereo not given), the Activity (Plasmodium berghei) was 96%.

In the case of `O=C(CN1C(=O)C2(CCCC2)NC[C@@H]1c1cc(F)cc(F)c1)Nc1ccc2c(c1)C[C@@]1(C2)C(=O)Nc2ncccc21`, the Ki [1] is reported as 0.57 nM.

In the case of `COc1cnc(O[C@@H]2C[C@@H](C(=O)N[C@]3(C(=O)NS(=O)(=O)C4CC4)C[C@H]3C(F)(F)F)N(C(=O)C(NC(=O)OC(C)(C)C)C(C)(C)C)C2)c2cc(Cl)ccc12` (single isomer, unassigned), the IC50 [2] is reported as 17 nM.

`O=C(CN1C(=O)C2(CCCC2)NC[C@@H]1c1ccccc1)Nc1ccc2c(c1)C[C@@]1(C2)C(=O)Nc2ncccc21` showed a Ki [1] of 0.067 nM.

Work on `COc1cnc(O[C@@H]2C[C@@H](C(=O)N[C@]3(C(=O)NS(=O)(=O)C4CC4)C[C@H]3C)N(C(=O)C(NC(=O)OC(C)(C)C)C(C)(C)C)C2)c2cc(Cl)ccc12` (single isomer, unassigned) yielded an IC50 [2] of 13 nM.

Compound `COc1cnc(O[C@@H]2C[C@@H](C(=O)N[C@]3(C(=O)NS(=O)(=O)C4CC4)C[C@H]3CC(F)F)N(C(=O)C(NC(=O)OC(C)(C)C)C(C)(C)C)C2)c2cc(Cl)ccc12` (single isomer, unassigned) has an IC50 [2] of 1 nM.

With `COc1cnc(O[C@@H]2C[C@@H](C(=O)N[C@@H](CC(F)F)C(=O)NS(=O)(=O)C3CC3)N(C(=O)C(NC(=O)OC(C)(C)C)C(C)(C)C)C2)c2cc(Cl)ccc12` (single isomer, unassigned) the IC50 [2] was 976 nM.

For `CC(=O)N[C@@H](Cc1cc(F)cc(F)c1)[C@H](O)CNC1(c2cccc(C(C)(C)C(F)F)c2)CC1`, the inhibition in vivo at 30 mg/kg [3] was 28% and the inhibition in vivo at 30 mg/kg [4] was 32%.

`C[C@@]1(c2cc(F)cc(F)c2)CN([11CH3])C2(CCCC2)C(=O)N1CC(=O)Nc1ccc2c(c1)C[C@@]1(C2)C(=O)Nc2ncccc21` gave a Ratio [5] of 1.7.

`COc1ccc2c(O[C@@H]3C[C@H]4C(=O)N[C@]5(C(=O)NS(=O)(=O)C6CC6)C[C@@]5(F)/C=C\CCCCN(C)C(=O)[C@@H]4C3)cc(-c3nc(C(C)C)cs3)nc2c1C` gave an EC50 [2] of 15000 nM.

For `COc1ccc2c(O[C@@H]3C[C@H]4C(=O)N[C@]5(C(=O)NS(=O)(=O)C6CC6)C[C@H]5/C=C\CCCCN(C)C(=O)[C@@H]4C3)cc(-c3nc(C(C)C)cs3)nc2c1C`, the EC50 [2] was 8.1 nM.

In the case of `COc1ccc2c(O[C@@H]3C[C@H]4C(=O)N[C@]5(P(=O)(O)Cc6c(F)cccc6F)C[C@H]5CCCCCCC[C@H](NC(=O)OC5CCCC5)C(=O)N4C3)cc(-c3csc(NC(C)C)n3)nc2c1Cl` [GS-9256], the EC50 (Hepatitis C virus) is reported as 20 nM, the IC50 [2] is reported as 4 nM and the Ki [2] is reported as 0.089 nM.

For `C=C[C@@H]1C[C@]1(NC(=O)[C@@H]1C[C@@H](Oc2cc(-c3csc(NC(C)C)n3)nc3cc(OC)ccc23)CN1C(=O)[C@@H](NC(=O)OC1CCCC1)C(C)(C)C)P(=O)(O)Cc1ccccc1`, the bioavailability [6] was 0.5%.

Compound `CC[C@H](NC(=O)[C@@H]1C[C@@H](Oc2ncc(OC)c3ccc(Cl)cc23)CN1C(=O)C(NC(=O)OC(C)(C)C)C(C)(C)C)C(=O)NS(=O)(=O)C1CC1` (single isomer, unassigned) has an IC50 [2] of 3080 nM.

Compound `COc1ccc2c(O[C@@H]3C[C@H]4C(=O)N[C@]5(P(=O)(O)Cc6ccccc6)C[C@H]5/C=C/CCCCC[C@H](NC(=O)OC5CCCC5)C(=O)N4C3)cc(-c3csc(NC(C)C)n3)nc2c1` has an EC50 (Hepatitis C virus) of 10 nM.

`O=C(CN1C(=O)C2(CCCC2)NC[C@H]1c1cc(F)cc(F)c1)Nc1ccc2c(c1)C[C@@]1(C2)C(=O)Nc2ncccc21` [MK3207] gave a Ki [1] of 0.017 nM.

`NCCCC[C@H](NC(=O)[C@@H](Cc1cc(Br)c(O)c(Br)c1)NC(=O)N1CCC(N2Cc3ccccc3NC2=O)CC1)C(=O)N1CCN(c2ccncc2)CC1` [OLCEGEPANT] gave a Ki [1] of 0.01 nM.
